From PubChem BioAssay (NCI)
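Cultured in 96-well plates, cells were exposed to test compound for 48 hours across five concentrations. GI50 marks 50% less growth. TGI: concentration producing complete growth inhibition.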

Key:
Experiment in all cases: growth of human tumour cells (NCI), 48 h
HL-60(TB) leukemia = test system: HL-60(TB) leukemia
K-562 leukemia = test system: K-562 leukemia
OVCAR-5 ovarian = test system: OVCAR-5 ovarian
RPMI-8226 leukemia = test system: RPMI-8226 leukemia
SF-268 CNS = test system: SF-268 CNS
SNB-19 CNS = test system: SNB-19 CNS
TK-10 renal = test system: TK-10 renal
A549 NSCLC = test system: A549 NSCLC
CCRF-CEM leukemia = test system: CCRF-CEM leukemia
SR leukemia = test system: SR leukemia

Row | Compound | GI50 (HL-60(TB) leukemia) [µM] | TGI (HL-60(TB) leukemia) [µM] | GI50 (K-562 leukemia) [µM] | TGI (K-562 leukemia) [µM] | GI50 (OVCAR-5 ovarian) [µM] | TGI (OVCAR-5 ovarian) [µM] | GI50 (RPMI-8226 leukemia) [µM] | TGI (RPMI-8226 leukemia) [µM] | GI50 (SF-268 CNS) [nM] | TGI (SF-268 CNS) [µM] | GI50 (SNB-19 CNS) [µM] | TGI (SNB-19 CNS) [µM] | GI50 (TK-10 renal) [µM] | TGI (TK-10 renal) [µM] | GI50 (A549 NSCLC) [µM] | TGI (A549 NSCLC) [µM] | GI50 (CCRF-CEM leukemia) [nM] | TGI (CCRF-CEM leukemia) [µM] | GI50 (SR leukemia) [µM] | TGI (SR leukemia) [µM]
1 | Cc1cn2c(/C=N/N/C(N)=N\N)c(-c3ccc(Cl)c([N+](=O)[O-])c3)nc2s1 | 25.2 | > 50 | 2.17 | > 50 | 1.03 | 2.1 | 4.54 | > 50 | 1030 | 2.37 | 2.05 | 18.6 | 5.82 | 30.7 |  |  |  |  |  | 
2 | COc1cnc2c(c1)C(=O)c1c-2n(CCCN2CCCC2)c(=O)c2cc(Cl)ccc12 | 6.23 | 15.2 | 0.792 | 11.4 | 5.02 | 11.3 | 5.26 | 16.3 | 170 | 9.38 | 1.03 | 11.7 |  |  | 0.605 | 10.2 | 25 | 9.05 | 0.0499 | 7.9
3 | O=C1C(=O)N(C2C3CC4CC(C3)CC2C4)C(=O)C(=O)C1c1nc2ccccc2o1 (stereo not given) |  |  |  | 77.4 |  | > 100 |  | > 100 |  | > 100 |  | > 100 |  | > 100 |  | > 100 |  |  |  | 
4 | N#Cc1ccccc1NC(=O)c1ccccc1 |  |  |  | > 100 |  | > 100 |  | > 100 |  | > 100 |  | > 100 |  | > 100 |  | > 100 |  |  |  | > 100
5 | C=C(C)[C@@H]1CC[C@@]2(C)[C@H]1[C@H]1CCC3[C@@]4(C)CC[C@H](O)C(C)(C)[C@@H]4CC[C@@]3(C)[C@]1(C)C[C@@H]2O (stereo not given in full) |  | > 100 |  | 47.7 |  | > 100 |  |  |  | > 100 |  | > 100 |  | > 100 |  | > 100 |  | > 100 |  | > 100
6 | COc1ccc(-c2ccc(/C=N/n3c(COc4ccc(Cl)cc4)n[nH]c3=S)o2)c([N+](=O)[O-])c1 | 14.8 | 44.3 | 11.6 | 53.4 | 24.7 | 51.4 |  |  | 16600 | 42.6 | 20.1 | 53.6 | 14.6 | 37.1 | 11.6 | 44.1 | 17500 | 52 |  | 
7 | C/C1=C\CC[C@@](C)(O)[C@@H]2CC3[C@@H](OC(=O)C34CC4)[C@@H](O2)[C@H](C)CCC1 (stereo not given in full) | 42.4 | > 100 | 35.1 | > 100 | 16.1 | 30.2 | 30.1 | > 100 | 19400 | 73.3 | 58.6 | > 100 |  |  | 24.5 | 77.6 | 3950 | > 100 | 19.9 | > 100
8 | CC(C)[C@@H](COC(C)(C)C)N=CN1CCc2c([nH]c3ccccc23)C1 |  | > 100 |  | > 100 |  | > 100 |  | > 100 |  | > 100 |  | > 100 |  | > 100 |  | > 100 |  | > 100 |  | 
9 | CS(=O)(=O)Nc1cc(-c2ccc3ncnc(Nc4ccc5c(cnn5Cc5ccc(F)cc5)c4)c3c2)cnc1Cl | 0.435 | 2.75 | 1.4 | 12.7 | 1.53 | 8.84 |  |  | 819 | 4.51 | 1.81 | 12.2 |  |  | 3.38 | 63.8 | 822 | > 100 | 1.71 | 6.73
10 | CCOC(=O)N1CCN(S(=O)(=O)c2oc(-c3ccc(Cl)cc3)nc2C#N)CC1 | 2.14 | 7.15 | 1.59 | > 100 | 3.92 | 13.3 |  |  | 2560 | 6.75 | 14.6 | 50.7 | 1.8 | 3.29 | 24.9 | > 100 | 360 | 5.13 |  | 
11 | CCOc1ccc(NC(=O)CC2SC(N)=NC2=O)cc1 (stereo not given) |  | > 100 |  |  |  | > 100 |  | > 100 |  | > 100 |  | > 100 |  | > 100 |  | > 100 |  | > 100 |  | 
12 | N#CC1C(N)=NNC12Nc1ccccc1N2 (stereo not given) | 52.4 | > 100 | 14 | 78.6 | > 100 | > 100 | 2.91 | 7.8 |  |  | 17.8 | 91 | 30.7 | 73.3 | 9.43 | > 100 |  |  | 6.4 | 36.8
13 | CCO[C@@H]1C2C=CC(C2)[C@H]1[N+](=O)[O-] (stereo not given in full) |  | > 100 |  | > 100 |  | > 100 |  | > 100 |  | > 100 |  | > 100 |  | > 100 |  | > 100 |  | > 100 |  | 
14 | CCOC(=O)/C(C#N)=C1\N[C@H](C(=O)OCC)CO1 |  | > 100 |  | > 100 |  | > 100 |  | > 100 |  | > 100 |  | > 100 |  |  |  | > 100 |  | > 100 |  | > 100
15 | COc1ccc2cc3n(c2c1)CCc1cc(OC)c(OC)cc1-3 |  | > 100 |  | > 100 |  |  |  |  |  | > 100 |  | > 100 |  | > 100 |  | > 100 |  | > 100 |  | 
16 | Nc1nc(OCc2ccccc2)nc2[nH]ncc12 |  |  | 19.7 | > 100 | 11.9 | 28.2 | 15.2 | 38.6 | 17100 | 48.4 | 26.3 | 83.2 | 1.39 | 14.2 | 27.7 | > 100 |  |  | 5.59 | 30.5
17 | CC1CC2(CC[C@@H]1O)OCCO2 (stereo not given in full) |  | > 100 |  | > 100 |  |  |  | > 100 |  |  |  | > 100 |  | > 100 |  | > 100 |  | > 100 |  | 
18 | CC1=CC(=O)C(C(C)=Nc2ccccc2Cl)C(=O)O1 (stereo not given) | > 100 | > 100 | > 100 | > 100 | > 100 | > 100 | > 100 | > 100 | > 100000 | > 100 | > 100 | > 100 | > 100 | > 100 | > 100 | > 100 | > 100000 | > 100 |  | 
19 | O=C(O)CCC1CCc2cccc3occ1c23 (stereo not given) |  | > 100 |  | > 100 |  | > 100 |  | > 100 |  | > 100 |  | > 100 |  | > 100 |  | > 100 |  | > 100 |  | 
